According to patent publication US20240208992A1, “MACROCYCLES AS CFTR MODULATORS” (Idorsia Pharmaceuticals Ltd, priority 2021, published 2024):

Biological target: human F508del-CFTR (Homo sapiens, UniProt P13569, DEL508-508)
Experiment: F508del-CFTR cell surface expression (corrector activity), DiscoveRx ß-galactosidase complementation chemiluminescence assay in recombinant U2OS cell line;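 note: U2OS cells co-expressing ProLink-tagged F508del-CFTR and a membrane-anchored enzyme acceptor, where more surface CFTR restores β-galactosidase activity measured by chemiluminescence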
Details: for EC50: EC50, F508del-CFTR cell surface expression, U2OS cells, 16h compound incubation, geomean values; for Emax: U2OS, in relation to Emax of corrector lumacaftor (=100%), arithmetic mean values

human F508del-CFTR, sequence (P13569 with tags, fused parts or gaps DEL508-508): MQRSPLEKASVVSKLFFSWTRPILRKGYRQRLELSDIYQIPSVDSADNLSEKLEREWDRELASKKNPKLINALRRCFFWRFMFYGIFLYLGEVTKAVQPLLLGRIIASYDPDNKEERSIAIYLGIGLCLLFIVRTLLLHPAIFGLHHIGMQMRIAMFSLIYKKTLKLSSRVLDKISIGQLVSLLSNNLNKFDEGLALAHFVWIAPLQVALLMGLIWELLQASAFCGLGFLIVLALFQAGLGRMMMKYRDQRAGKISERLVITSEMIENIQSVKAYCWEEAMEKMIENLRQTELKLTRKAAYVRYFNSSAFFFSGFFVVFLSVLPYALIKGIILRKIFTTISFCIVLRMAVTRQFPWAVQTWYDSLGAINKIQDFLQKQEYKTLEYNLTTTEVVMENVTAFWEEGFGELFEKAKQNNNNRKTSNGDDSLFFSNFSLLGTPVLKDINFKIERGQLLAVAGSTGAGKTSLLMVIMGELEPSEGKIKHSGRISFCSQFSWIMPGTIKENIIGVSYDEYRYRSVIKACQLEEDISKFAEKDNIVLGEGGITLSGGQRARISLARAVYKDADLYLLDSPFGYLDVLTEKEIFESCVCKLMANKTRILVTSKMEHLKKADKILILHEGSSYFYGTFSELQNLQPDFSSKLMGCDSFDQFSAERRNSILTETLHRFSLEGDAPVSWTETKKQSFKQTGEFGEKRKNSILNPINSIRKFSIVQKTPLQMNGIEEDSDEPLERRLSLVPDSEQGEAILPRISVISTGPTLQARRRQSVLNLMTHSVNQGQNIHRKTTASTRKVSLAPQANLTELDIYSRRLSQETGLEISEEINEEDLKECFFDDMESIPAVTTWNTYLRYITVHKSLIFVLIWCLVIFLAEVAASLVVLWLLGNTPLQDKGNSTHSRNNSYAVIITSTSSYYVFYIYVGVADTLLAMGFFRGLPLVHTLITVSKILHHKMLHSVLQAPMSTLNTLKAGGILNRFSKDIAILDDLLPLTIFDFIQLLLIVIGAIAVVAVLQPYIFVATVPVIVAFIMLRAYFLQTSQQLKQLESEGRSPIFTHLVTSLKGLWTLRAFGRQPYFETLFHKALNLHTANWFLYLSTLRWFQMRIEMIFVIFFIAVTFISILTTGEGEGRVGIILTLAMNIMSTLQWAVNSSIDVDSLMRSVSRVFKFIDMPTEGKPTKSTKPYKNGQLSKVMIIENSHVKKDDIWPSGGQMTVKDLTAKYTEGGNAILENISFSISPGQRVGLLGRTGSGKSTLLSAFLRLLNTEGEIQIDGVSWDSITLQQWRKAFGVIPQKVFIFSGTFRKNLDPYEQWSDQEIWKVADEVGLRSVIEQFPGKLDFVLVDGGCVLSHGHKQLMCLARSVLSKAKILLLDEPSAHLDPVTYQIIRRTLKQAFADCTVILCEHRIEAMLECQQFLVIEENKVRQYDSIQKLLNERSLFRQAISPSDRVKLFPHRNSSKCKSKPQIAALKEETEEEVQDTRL

Row | SMILES | EC50 | Emax
1 | CC(C)C[C@H]1C(=O)N2CCCC[C@@H]2C(=O)N[C@H](Cc2ccccc2)COc2ccc3ncn(C)c3c2C(=O)N[C@H](C(=O)NCCc2c(F)cccc2F)CC(=O)N1C [Example 485, (8S,12S,18aR,21R)-21-benzyl-N-(2,6-difluorophenethyl)-12-isobutyl-5,11-dimethyl-6,10,13,19-tetraoxo-6,7,8,9,10,11,12,13,16,17,18,18a,19,20,21,22-hexadecahydro-5H,15H-imidazo[4′,5′:5,6]benzo[1,2-p]pyrido[2,1-f][1]oxa[4,7,10,14]tetraazacycloheptadecine-8-carboxamide] | 238 nM | 204%
2 | CC(C)C[C@H]1C(=O)N2CCCC[C@@H]2C(=O)N[C@H](Cc2ccccc2)COc2ccc3ncccc3c2C(=O)N[C@H](C(=O)NCCc2noc(C3CC3)n2)CC(=O)N1C [Example 486, (9S,13S,19aR,22R)-22-benzyl-N-(2-(5-cyclopropyl-1,2,4-oxadiazol-3-yl)ethyl)-13-isobutyl-12-methyl-7,11,14,20-tetraoxo-7,8,9,10,11,12,13,14,17,18,19,19a,20,21,22,23-hexadecahydro-16H-pyrido[2′,11:6,7][1]oxa[4,7,10,14]tetraazacycloheptadecino[16,17-f]quinoline-9-carboxamide] | 201 nM | 303%
3 | Cc1cc(CCNC(=O)[C@@H]2CC(=O)N(C)[C@@H](CC(C)C)C(=O)N3CCCC[C@@H]3C(=O)N[C@@H](Cc3ccccc3)COc3cnc4ccccc4c3C(=O)N2)on1 [Example 487, (9S,13S,19aR,22S)-22-benzyl-13-isobutyl-12-methyl-N-(2-(3-methylisoxazol-5-yl)ethyl)-7,11,14,20-tetraoxo-7,8,9,10,11,12,13,14,17,18,19,19a,20,21,22,23-hexadecahydro-16H-pyrido[2′,1′:6,7][1]oxa[4,7,10,14]tetraazacycloheptadecino[17,16-c]quinoline-9-carboxamide] | 1340 nM | 147%
4 | COc1cccc(CCNC(=O)[C@@H]2CC(=O)N(C)[C@@H](CC(C)C)C(=O)N(C)C3(CC3)C(=O)N[C@H](Cc3ccccc3)COc3ccc(OC)nc3C(=O)N2)c1 [Example 488, (3′R,9′S,13′S)-3′-benzyl-9′-isobutyl-17′-methoxy-N-(3-methoxyphenethyl)-7′,10′-dimethyl-5′,8′,11′,15′-tetraoxo-2′,3′,4′,5′,8′,9′,10′,11′,12′,13′,14′,15′-dodecahydro-7′H-spiro[cyclopropane-1,6′-pyrido[2,3-p][1]oxa[4,7,10,14]tetraazacycloheptadecine]-13′-carboxamide] | 910 nM | 270%
5 | CC(C)C[C@H]1C(=O)N2CCOC[C@@H]2C(=O)N[C@H](Cc2ccccc2)COc2cnc3ccc(F)cc3c2C(=O)N[C@H](C(=O)NCCc2noc(C3CC3)n2)CC(=O)N1C [Example 489, (9S,13S,19aR,22R)-22-benzyl-N-(2-(5-cyclopropyl-1,2,4-oxadiazol-3-yl)ethyl)-5-fluoro-13-isobutyl-12-methyl-7,11,14,20-tetraoxo-7,8,9,10,11,12,13,14,16,17,19,19a,20,21,22,23-hexadecahydro-[1,4]oxazino[3′,4′:6,7][1]oxa[4,7,10,14]tetraazacycloheptadecino[17,16-c]quinoline-9-carboxamide] | 625 nM | 273%
6 | CC(C)C[C@H]1C(=O)N2CCCC[C@@H]2C(=O)N[C@H](Cc2ccccc2)COc2ccc3c(cnn3C)c2C(=O)N[C@H](C(=O)NCCc2c(F)cccc2F)CC(=O)N1C [Example 490, (8S,12S,18aR,21R)-21-benzyl-N-(2,6-difluorophenethyl)-12-isobutyl-3,11-dimethyl-6,10,13,19-tetraoxo-6,7,8,9,10,11,12,13,16,17,18,18a,19,20,21,22-hexadecahydro-3H,15H-pyrido[2′,1′:6,7][1]oxa[4,7,10,14]tetraazacycloheptadecino[16,17-e]indazole-8-carboxamide] | 222 nM | 181%
7 | CC(C)C[C@H]1C(=O)N2CCCC[C@@H]2C(=O)N[C@H](Cc2ccccc2)COc2ccc3c(c2C(=O)N[C@H](C(=O)NCCc2c(F)cccc2F)CC(=O)N1C)OCC3 [Example 491, (8S,12S,18aR,21R)-21-benzyl-N-(2,6-difluorophenethyl)-12-isobutyl-11-methyl-6,10,13,19-tetraoxo-3,4,6,7,8,9,10,11,12,13,16,17,18,18a,19,20,21,22-octadecahydro-15H-benzofuro[7,6-p]pyrido[2,1-f][1]oxa[4,7,10,14]tetraazacycloheptadecine-8-carboxamide] | 209 nM | 178%
8 | CO[C@H]1C[C@]2(C1)C(=O)N[C@H](Cc1ccccc1)COc1ccc3ccccc3c1C(=O)N[C@H](C(=O)NCCc1ccc(-n3nccn3)cc1)CC(=O)N(C)[C@@H](CC(C)C)C(=O)N2C [Example 492, (1r,3S,3′S,7′S,13′R)-N-(4-(2H-1,2,3-triazol-2-yl)phenethyl)-13′-benzyl-7′-isobutyl-3-methoxy-6′,9′-dimethyl-1′,5′,8′,11′-tetraoxo-2′,3′,4′,5′,6′,7′,8′,9′,11′,12′,13′,14′-dodecahydro-1′H-spiro[cyclobutane-1,10′-naphtho[1,2-p][1]oxa[4,7,10,14]tetraazacycloheptadecine]-3′-carboxamide] | 305 nM | 168%
9 | CO[C@H]1C[C@]2(C1)C(=O)N[C@H](Cc1ccccc1)COc1cnc3ccccc3c1C(=O)N[C@H](C(=O)NCCc1ccc(-n3nccn3)cc1)CC(=O)N(C)[C@@H](CC(C)C)C(=O)N2C [Example 493, (1r,3S,3′S,7′S,13′R)-N-(4-(2H-1,2,3-triazol-2-yl)phenethyl)-13′-benzyl-7′-isobutyl-3-methoxy-6′,9′-dimethyl-1′,5′,8′,11′-tetraoxo-2′,3′,4′,5′,6′,7′,8′,9′,11′,12′,13′,14′-dodecahydro-1′H-spiro[cyclobutane-1,10′-[1]oxa[4,7,10,14]tetraazacycloheptadecino[17,16-c]quinoline]-3′-carboxamide] | 687 nM | 253%
10 | COc1cccc(CCNC(=O)[C@@H]2CC(=O)N(C)[C@@H](CC(C)C)C(=O)N(C)C3(CC3)C(=O)N[C@H](Cc3ccccc3)COc3ccc4cnccc4c3C(=O)N2)c1 [Example 494, (3′S,7′S,13′R)-13′-benzyl-7′-isobutyl-N-(3-methoxyphenethyl)-6′,9′-dimethyl-1′,5′,8′,11′-tetraoxo-2′,3′,4′,5′,6′,7′,8′,9′,11′,12′,13′,14′-dodecahydro-1′H-spiro[cyclopropane-1,10′-[1]oxa[4,7,10,14]tetraazacycloheptadecino[16,17-f]isoquinoline]-3′-carboxamide] | 260 nM | 295%
11 | Cc1cc(CCNC(=O)[C@@H]2CC(=O)N(C)[C@@H](CC(C)C)C(=O)N(C)C3(Cc4ccccc4C3)C(=O)N[C@H](Cc3ccccc3)COc3cnc4ccccc4c3C(=O)N2)on1 [Example 495, (3′S,7′S,13′R)-13′-benzyl-7′-isobutyl-6′,9′-dimethyl-N-(2-(3-methylisoxazol-5-yl)ethyl)-1′,5′,8′,11′-tetraoxo-1,2′,3,3′,4′,5′,6′,7′,8′,9′,11′,12′,13′,14′-tetradecahydro-1′H-spiro[indene-2,10′-[1]oxa[4,7,10,14]tetraazacycloheptadecino[17,16-c]quinoline]-3′-carboxamide] | 296 nM | 207%
12 | CC(C)C[C@H]1C(=O)N(C)C2(CC2)C(=O)N[C@H](Cc2ccccc2)COc2cnc3ccccc3c2C(=O)N[C@H](C(=O)NCCc2ccc(-c3ncccn3)cc2)CC(=O)N1C [Example 496, (3′S,7′S,13′R)-13′-benzyl-7′-isobutyl-6′,9′-dimethyl-1′,5′,8′,11′-tetraoxo-N-(4-(pyrimidin-2-yl)phenethyl)-2′,3′,4′,5′,6′,7′,8′,9′,11′,12′,13′,14′-dodecahydro-1′H-spiro[cyclopropane-1,10′-[1]oxa[4,7,10,14]tetraazacycloheptadecino[17,16-c]quinoline]-3′-carboxamide] | 523 nM | 317%
13 | CC(C)C[C@H]1C(=O)N2CCCC[C@H]2C(=O)N[C@H](Cc2ccccc2)COc2cnc3c(F)cccc3c2C(=O)N[C@H](C(=O)NCCc2cc(C3CC3)on2)CC(=O)N1C [Example 497, (9S,13S,19aS,22R)-22-benzyl-N-(2-(5-cyclopropylisoxazol-3-yl)ethyl)-3-fluoro-13-isobutyl-12-methyl-7,11,14,20-tetraoxo-7,8,9,10,11,12,13,14,17,18,19,19a,20,21,22,23-hexadecahydro-16H-pyrido[2′,1′:6,7][1]oxa[4,7,10,14]tetraazacycloheptadecino[17,16-c]quinoline-9-carboxamide] | 535 nM | 171%
14 | CC(C)C[C@H]1C(=O)N2CCCC[C@@H]2C(=O)N[C@H](Cc2ccccc2)COc2cnc3c(F)cccc3c2C(=O)N[C@H](C(=O)NCCc2noc(C3CC3)n2)CC(=O)N1C [Example 498, (9S,13S,19aR,22R)-22-benzyl-N-(2-(5-cyclopropyl-1,2,4-oxadiazol-3-yl)ethyl)-3-fluoro-13-isobutyl-12-methyl-7,11,14,20-tetraoxo-7,8,9,10,11,12,13,14,17,18,19,19a,20,21,22,23-hexadecahydro-16H-pyrido[2′,11:6,7][1]oxa[4,7,10,14]tetraazacycloheptadecino[17,16-c]quinoline-9-carboxamide] | 198 nM | 313%
15 | CC(C)C[C@H]1C(=O)N2CCCC[C@@H]2C(=O)N[C@H](Cc2ccccc2)COc2cnc3c(F)cccc3c2C(=O)N[C@H](C(=O)NCCc2cc(C3CC3)no2)CC(=O)N1C [Example 499, (9S,13S,19aR,22R)-22-benzyl-N-(2-(3-cyclopropylisoxazol-5-yl)ethyl)-3-fluoro-13-isobutyl-12-methyl-7,11,14,20-tetraoxo-7,8,9,10,11,12,13,14,17,18,19,19a,20,21,22,23-hexadecahydro-16H-pyrido[2′,11:6,7][1]oxa[4,7,10,14]tetraazacycloheptadecino[17,16-c]quinoline-9-carboxamide] | 189 nM | 321%
